Source: patent US8815590B2, “Composition and method for differentiation of human embryonic stem cells” (Stem Cells for Safer Medicines Limited, priority 2009, dated 2014)

Legend:
Human ESCs [SHEF3] [1] = test: Flow cytometry of pluripotency surface markers Tra-1-60 and SSEA4 in treated human ESCs; type: cell-based
Experimental: (A) Images show typical colonies formed following the indicated treatments. The scale bars represent 1 mm. (B) Histogram plots of ESCs analysed by flow cytometry following immunostaining with antibodies against the pluripotency markers Tra-1-60 or SSEA4. (C) RNA was extracted from the cells and RT-PCR analyses performed using primers specific to the pluripotency genes OCT4 and NANOG and to the house-keeping gene β-ACTIN. (D) Western blot analysis was performed on protein extracted from the cells and immunoblotted with antibodies specific to Oct4. Blots were stripped and reprobed with anti-Gapdh antibodies to assess equal loading. […] SHEF3 cells were treated with the indicated concentration of 1O for 7 days. Images show typical colony morphology. (F) Histogram plots of ESCs analysed by flow cytometry following staining with Tra-1-60 and SSEA4 antibodies. Analysis of percent positive cells and mean fluorescent intensity are indicated on the plots. (G) RT PCR analysis for the expression of OCT4 and NANOG. Bands for each of the genes were from the same gel with intervening samples removed. (H) Western blot analysis of OCT4 protein expression. Proteins bands were from the same immunoblot with intervening samples removed.
SHEF1 and SHEF3 human ESCs were obtained from the UKSCB and cultured as outlined in their protocols. Briefly, ESCs were maintained on mitomycin C-inactivated mouse embryonic fibroblast (MEF) feeder layers in KnockOut Dulbecco's modified Eagle's medium (KO DMEM) (Invitrogen) supplemented with 20% (vol/vol) KO serum replacement (KOSR; Invitrogen), 1 mM non-essential amino acids (NEAA; Invitrogen), 1 mM glutamine (Invitrogen), 0.1 mM 2-mercaptoethanol (BioRad), penicillin/streptomycin, and 4 ng/ml recombinant human FGF2 (Peprotech). Cultures were passage using 1 mg/ml collagenase at a ratio of 1:8 to 1:12 every 7 days. Cultures were transferred to a feeder-free, chemically defined culture system on ESC-qualified Matrigel® (BD) coated plates in mTeSR1® (Stem Cell Technologies) media according to Stem Cell Technologies' protocol.
ESCs were trypsinised (0.05% Trypsin-EDTA) for 10 minutes at 37° C. and resuspended in PBS containing 2% (v/v) FBS (FBS/PBS). […] Cells were washed and stained with secondary fluorescein isothiocyanate (FITC)-conjugated antibodies (SIGMA) for a further 30 minutes, if required. Flow cytometry was performed using a FACSCanto cytometer (Becton Dickenson) and the data were analysed with FACSDiva software. Dead cells were excluded for analyses based on forward and side scatter parameters.

Human ESCs [SHEF3] [2] = test: Differentiation towards definitive endoderm: immunostaining and RT-PCR of endodermal markers; type: cell-based; conditions: 2 μM
Experimental: Human ESCs [SHEF3] were maintained feeder-free on Matrigel® in chemically defined mTeSR1® media and treated with 2 μM 1M for the days indicated. (A) Expression of the endodermal markers FoxA2, Sox17 and HNF4α were analysed by immunofluorescence. Treatment with compound 1M led to expression of all markers after 7 days treatment. Scale bar represents 50 μm. (B) ESCs were harvested on day 7 following treatment with 1M for the indicated days. RNA was extracted and RT-PCR analyses performed using primers selective for the genes indicated. […] (C) BIO induces differentiation towards the DE. SHEF3 ESCs were treated with 2 μM BIO for the times indicated and immunostained with antibodies towards the endodermal markers FOXA2, SOX17 and HNF4α. (D) Compound 1L also induces differentiation towards the DE. SHEF1 ESCs were treated with 2 μM 1L for the times indicated and immunostained with antibodies towards the endodermal markers FOXA2 and HNF4α.
ESCs were cultured feeder-free on Matrigel®-coated plates in mTeSR1® media, supplemented with 2 μM compound 1M for 7 days with the media being refreshed every-other day. Definitive endoderm cultures were passaged with collagenase (1 mg/ml) and plated at a ratio of 1:10 on Matrigel® in KO DMEM supplemented with glutamine, penicillin/streptomycin, NEAA, 2% (v/v) KOSR, 10 ng/ml HGF (Peprotech) and 10 ng/ml FGF4 and cultured for a further 7 days with the media being refreshed every-other day. To allow for maturation of the HLCs, 10 ng/ml oncostatin M (Peprotech) and 10^−7 dexamethasone (SIGMA) were added to the above media and the cells were cultured for an additional 7 days with fresh media every-other day.
Total RNA was isolated and purified using TRIzol Reagent (Invitrogen), following the manufacturer's instructions. All RNA samples were treated with DNase I (Ambion) before cDNA synthesis to eliminate any contaminating genomic DNA. RNA (1 μg) was reverse transcribed into cDNA using Oligo(dT)15 (Promega) and SuperScript II (Invitrogen). Gene-specific PCR was carried out using primers and annealing temperatures outlined in Table 2.
ESCs were cultured on Matrigel®-coated lummox (Greiner Bio One) trays and fixed with 4% paraformaldehyde (PFA) for 20 minutes at room temperature. Cells were permeabilised in PBST (with 0.1% Triton X-100) and blocked in 10% blocking reagent (Roche) before incubating with primary antibodies in 2% blocking reagent overnight at 4° C. After washing in PBS, cells were incubated with FITC-conjugated secondary antibodies (Vector Labs) for 3 hours at room temperature. After further washing, the cells were stained with 4,6-diamidino-2-phenylindole (DAPI) (SIGMA), washed again and mounted in MOWIOL. […]

[3] = MEF culture, concentration 0.5, 7 days
[4] = MEF culture, concentration 2, 7 days
[5] = mTeSR1, concentration 0.5, 7 days
[6] = mTeSR1, concentration 2, 7 days

O=C1NC(=O)C2=C1c1cn(c3ccccc13)CCOCCOCCOCCOCCn1cc2c2ccccc21 [1M]
Expression of pluripotency markers Tra-1-60 and SSEA4 by flow cytometry (in words) (Human ESCs [SHEF3] [1]; 7 days treatment): dramatic decrease in expression
Tra1-60 % pos (Human ESCs [SHEF3] [1]; MEF culture, concentration 0.5 (unit not given), 7 days): 82.1%
SSEA4 % pos (Human ESCs [SHEF3] [1]; [3]): 90.4%
SSEA4 mean (mean fluorescence intensity) (Human ESCs [SHEF3] [1]; [3]): 5805
Tra1-60 mean (mean fluorescence intensity) (Human ESCs [SHEF3] [1]; [3]): 9403
Tra1-60 % pos (Human ESCs [SHEF3] [1]; MEF culture, concentration 2 (unit not given), 7 days): 18.9%
SSEA4 % pos (Human ESCs [SHEF3] [1]; [4]): 72.9%
SSEA4 mean (mean fluorescence intensity) (Human ESCs [SHEF3] [1]; [4]): 1656
Tra1-60 mean (mean fluorescence intensity) (Human ESCs [SHEF3] [1]; [4]): 1092
Tra1-60 % pos (Human ESCs [SHEF3] [1]; mTeSR1 (feeder-free, Matrigel), concentration 0.5, 7 days): 85.9%
Tra1-60 % pos (Human ESCs [SHEF3] [1]; mTeSR1 (feeder-free, Matrigel), concentration 2, 7 days): 25.6%
SSEA4 % pos (Human ESCs [SHEF3] [1]; [5]): 88.6%
SSEA4 mean (mean fluorescence intensity) (Human ESCs [SHEF3] [1]; [5]): 7578
Tra1-60 mean (mean fluorescence intensity) (Human ESCs [SHEF3] [1]; [5]): 11955
SSEA4 % pos (Human ESCs [SHEF3] [1]; [6]): 52.9%
SSEA4 mean (mean fluorescence intensity) (Human ESCs [SHEF3] [1]; [6]): 465
Tra1-60 mean (mean fluorescence intensity) (Human ESCs [SHEF3] [1]; [6]): 312
Differentiation towards the DE (immunostaining FOXA2, SOX17, HNF4α) (Human ESCs [SHEF3] [2]; feeder-free on Matrigel in mTeSR1, up to 7 days): differentiating towards the DE in a time dependent manner
Expression of HNF4α and AFP (early hepatic lineage) (Human ESCs [SHEF3] [2]; following 7 days treatment): expression of HNF4α and α-fetoprotein (AFP) was observed
